According to patent publication US20150105252A1, “SUBSTITUTED PYRAZOLES AS HERBICIDES” (E I DU PONT DE NEMOURS AND COMPANY, priority 2013, published 2015):

Experiments:
crabgrass, large = test: Test C preemergence; type: in vivo, Digitaria sanguinalis; settings: for Crabgrass, Large plant response rating: preemergence
Outline: (§1)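 Postemergence values come from plants sprayed at the 1- to 4-leaf stage (2–18 cm) in peat moss–vermiculite medium; preemergence values from seeds treated in a loam–sand blend. Both evaluated visually against controls after 13–15 greenhouse days, scale 0–100.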

chickweed = test: Test C postemergence; type: in vivo, Stellaria media
Outline: as §1

galium = test: Test C postemergence; type: in vivo, Galium aparine
Outline: as §1

foxtail, giant [1] = test: Test C preemergence; type: in vivo, Setaria faberii; settings: for Foxtail, Giant plant response rating: preemergence
Outline: as §1

johnsongrass = test: Test C postemergence; type: in vivo, Sorghum halepense
Outline: as §1

waterhemp [2] = test: Test C postemergence; type: in vivo, Amaranthus rudis
From the text: Seeds of plant species selected from blackgrass (Alopecurus myosuroides), ryegrass, Italian (Italian ryegrass, Lolium multiflorum), wheat (winter wheat, Triticum aestivum), galium (catchweed bedstraw, Galium aparine), corn (Zea mays), crabgrass, large (large crabgrass, Digitaria sanguinalis), foxtail, giant (giant foxtail, Setaria faberii), johnsongrass (Sorghum halepense), lambsquarters (Chenopodium album), morningglory (Ipomoea coccinea), nutsedge, yellow (yellow nutsedge, Cyperus esculentus), pigweed (redroot pigweed, Amaranthus retroflexus), ragweed (common ragweed, Ambrosia elation), soybean (Glycine max), barnyardgrass (Echinochloa crus-galli), oilseed rape (Brassica napus), waterhemp (common waterhemp, Amaranthus rudis), oat, wild (wild oat, Avena fatua), kochia (Kochia scoparia), Surinam grass (Brachiaria decumbens), foxtail, green (green foxtail, Setaria viridis), goosegrass (Eleusine indica), bromegrass, downy (downy bromegrass, Bromus tectorum), nightshade (eastern black nightshade, Solanum ptycanthum), cocklebur (common cocklebur, Xanthium strumarium), cupgrass, woolly (woolly cupgrass, Eriochloa villosa), bermudagrass (Cynodon dactylon), sunflower, (common oilseed sunflower, Helianthus annuus), Russian thistle (Salsola kali), and velvetleaf (Abutilon theophrasti) were planted into a blend of loam soil and sand and treated preemergence with test chemicals formulated in a non-phytotoxic solvent mixture which included a surfactant.
At the same time, plants selected from these crop and weed species and also chickweed (common chickweed, Stellaria media), canarygrass (littleseed canarygrass, Phalaris minor), and deadnettle (henbit deadnettle, Lamium amplexicaule), were planted in pots containing Redi-Earth® planting medium (Scotts Company, 14111 Scottslawn Road, Marysville, Ohio 43041) comprising spaghnum peat moss, vermiculite, wetting agent and starter nutrients and treated with postemergence applications of test chemicals formulated in the same manner. Plants ranged in height from 2 to 18 cm (1- to 4-leaf stage) for postemergence treatments. Treated plants and controls were maintained in a greenhouse for 13 to 15 days, after which time all species were compared to controls and visually evaluated. Plant response ratings, summarized in Table C, are based on a scale of 0 to 100 where 0 is no effect and 100 is complete control. A dash (-) response means no test result.

waterhemp [3] = test: Test C preemergence; type: in vivo, Amaranthus rudis; settings: for Waterhemp plant response rating: preemergence
Outline: as §1

foxtail, giant [4] = test: Test C postemergence; type: in vivo, Setaria faberii
Outline: as §1

ducksalad = test: Test B flood; type: in vivo, Heteranthera limosa; settings: 250 g ai/ha, visual rating on 0 to 100 scale (0 no effect, 100 complete control), 13 to 15 days
Outline: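 Response scored visually, 0–100 relative to controls, 13–15 days after the compound was applied into paddy water; plants were at the 2-leaf stage in pots kept flooded to 3 cm.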

oat, wild = test: Test C postemergence; type: in vivo, Avena fatua
Outline: as §1

foxtail, giant [5] = test: Test A preemergence; type: in vivo, Setaria faberii; settings: preemergence
Outline: (§2)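 Injury readout: eye-scored versus untreated controls, 0 to 100. Exposure period: ~10 days, greenhouse. Application: soil-directed spray over sown seed (pre) or spray on seedlings 2–10 cm tall with one or two leaves (post), compound carried in non-phytotoxic solvent including surfactant.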

foxtail, giant [6] = test: Test A postemergence; type: in vivo, Setaria faberii
Outline: as §2

[7] = 31 g ai/ha, visual rating, scale 0 to 100 (0 no effect, 100 complete control), 13 to 15 days
[8] = 62 g ai/ha, scale 0 to 100 (0 no effect, 100 complete control), 13 to 15 days
[9] = 125 g ai/ha, scale 0 to 100, 0 is no effect, 100 is complete control
[10] = Postemergence, 31 g ai/ha, visually evaluated after 13 to 15 days
[11] = postemergence, 62 g ai/ha, scale 0 to 100
[12] = postemergence, 250 g ai/ha, scale 0 to 100 (0 no effect, 100 complete control)
[13] = postemergence, 125 g ai/ha, scale 0 to 100, 0 no effect, 100 complete control

## CCc1cc(C(=O)NOC(C)C)nn1Cc1ccnc(OC(F)F)c1 [Compound 126]
crabgrass, large; Preemergence, 250 g ai/ha
  Plant response rating (scale of 0 to 100), Crabgrass, Large: 100
crabgrass, large; [7]
  Crabgrass, Large plant response rating: 90
crabgrass, large; [8]
  Crabgrass, Large plant response rating: 100
crabgrass, large; [9]
  Crabgrass, Large plant response rating: 100
chickweed; [10]
  Plant response rating (scale of 0 to 100 where 0 is no effect and 100 is complete control), Chickweed: 60
chickweed; [11]
  Chickweed plant response rating: 70
chickweed; [12]
  Plant response rating, Chickweed: 85
chickweed; [13]
  Plant response rating, Chickweed: 80
galium; [10]
  Plant response rating (scale of 0 to 100 where 0 is no effect and 100 is complete control), Galium: 50
galium; [11]
  Galium plant response rating: 50
galium; [12]
  Plant response rating, Galium: 70
galium; [13]
  Plant response rating, Galium: 55
foxtail, giant [1]; Preemergence, 250 g ai/ha
  Plant response rating (scale of 0 to 100), Foxtail, Giant: 100
foxtail, giant [1]; [7]
  Foxtail, Giant plant response rating: 45
foxtail, giant [1]; [8]
  Foxtail, Giant plant response rating: 85
foxtail, giant [1]; [9]
  Foxtail, Giant plant response rating: 98
johnsongrass; [10]
  Plant response rating (scale of 0 to 100 where 0 is no effect and 100 is complete control), Johnsongrass: 5
johnsongrass; [11]
  Johnsongrass plant response rating: 10
johnsongrass; [12]
  Plant response rating, Johnsongrass: 25
johnsongrass; [13]
  Plant response rating, Johnsongrass: 20
Waterhemp [2]; [10]
  Plant response rating (scale of 0 to 100 where 0 is no effect and 100 is complete control), Waterhemp: 40
Waterhemp [2]; [11]
  Waterhemp plant response rating: 50
Waterhemp [2]; [12]
  Plant response rating, Waterhemp: 90
Waterhemp [2]; [13]
  Plant response rating, Waterhemp: 70
Waterhemp [3]; Preemergence, 250 g ai/ha
  Plant response rating (scale of 0 to 100), Waterhemp: 100
Waterhemp [3]; [7]
  Waterhemp plant response rating: 90
Waterhemp [3]; [8]
  Waterhemp plant response rating: 98
Waterhemp [3]; [9]
  Waterhemp plant response rating: 100
foxtail, giant [4]; [10]
  Plant response rating (scale of 0 to 100 where 0 is no effect and 100 is complete control), Foxtail, Giant: 10
foxtail, giant [4]; [11]
  Foxtail, Giant plant response rating: 20
foxtail, giant [4]; [12]
  Plant response rating, Foxtail, Giant: 60
foxtail, giant [4]; [13]
  Plant response rating, Foxtail, Giant: 20
ducksalad
  Plant response rating, Ducksalad: 95
oat, wild; [10]
  Plant response rating (scale of 0 to 100 where 0 is no effect and 100 is complete control), Oat, Wild: 35
oat, wild; [11]
  Oat, Wild plant response rating: 15
oat, wild; [12]
  Plant response rating, Oat, Wild: 50
oat, wild; [13]
  Plant response rating, Oat, Wild: 20
foxtail, giant [5]; 125 g ai/ha, visual injury, 0 to 100 scale, approx. 10 days
  Foxtail, Giant plant response rating: 100
foxtail, giant [5]; 500 g ai/ha, visual injury after approx. 10 days, 0 to 100 scale (0 no effect, 100 complete control)
  Foxtail, Giant plant response rating: 100
foxtail, giant [6]; Postemergence, 500 g ai/ha, 0 to 100 scale (0 no effect, 100 complete control)
  Foxtail, Giant plant response rating: 90
foxtail, giant [6]; postemergence, 125 g ai/ha, about 10 days, visual rating on 0 to 100 scale (0 no effect, 100 complete control)
  Foxtail, Giant plant response rating: 90
